Data taken from PubChem BioAssay AID1963840 (Molecular Pharmacology Branch, DTP, NCI, 2024).

System: 695427-040-R-J1-PDC complex spheroid viability
Assay: Anticancer human tumor 695427-040-R-J1-PDC patient-derived colon adenocarcinoma cell line growth inhibition [POLQ]
Conditions: for IC50: curve of first compound; for viability, T/C: stronger effect = lower value; active = viability on the fitted dose curve at most 10% of control; inactive = the rest
Experimental: Multicellular complex tumor spheroid response to Polymerase (POL) inhibitors (novobiocin, ART-558, RP6685) in combination with a variety of drugs and investigational agents in selected tumor cell lines
The POL inhibitors (novobiocin, ART-558, and RP6685) were evaluated both individually and in combination with standard of care and investigational anticancer small molecules within a complex spheroid model of solid tumors. . Complex spheroids include a stromal component modeled by human endothelial cells (HUVEC) and fibroblasts modeled by human mesenchymal stem cells (MSCs). The concentration ranges selected for each drug and investigational agent were based upon clinically achievable concentrations if the clinical Cmax of the agent was known.
Compounds. The drugs and investigational agents: novobiocin (NSC847541), ART-558 (NSC835418), RP-6685 (NSC848927), peposertib (NSC802822), ceralasertib (NSC780249), elimusertib (NSC800525), camonsertib (NSC841442), AZD-1390 (NSC803789), olaparib (NSC753686), talazoparib (NSC767125), rucaparib (NSC756644), sotorasib (NSC818433), MRTX-1133 (NSC836407), SN-38 (NSC673596), topotecan (NSC609699), epotoside (NSC141540), doxorubicin (NSC123127), gemcitabine (NSC613327), 5-fluorouracil (NSC19893), paclitaxel (NSC125973), vemurafenib (NSC761431), MSA-2 (NSC828583), SN-011 (NSC837082), adavosertib (NSC754352), prexasertib (NSC758257), carboplatin (NSC241240) and oxaliplatin (NSC266046), were obtained from the National Cancer Institute (NCI) Developmental Therapeutics Program Chemical Repository (21). The FDA-approved anticancer drug set is available from the Developmental Therapeutics Program at https://dtp.cancer.gov/organization/dscb/obtaining/. […] The stock solutions were prepared in dimethyl sulfoxide (DMSO, Sigma-Aldrich, St. Louis, MO, cat. D2650), except for the platinum compounds which were prepared in saline (Quality Biological, Gaithersburg, MD, cat. 114-055-101), at 800-fold the tested concentration and stored at -70 degrees C prior to their use. All drugs and investigational agents were tested over a range starting from a high concentration at or near the clinical Cmax and decreasing in half-log increments. If the clinical Cmax for an agent had not been determined, the highest concentration tested was 10 microM, except for SN-38, which was tested at a high concentration of 1 microM.
Cell Culture. All cells were maintained in an incubator at 37 degrees C and 5% CO2 with 95% humidity. The PDC lines were cultured according to standard operating procedures established by the NCI PDMR (https://pdmr.cancer.gov). Table 3 of the manuscript, lists the cell lines along with the number of the three cell types plated to form the mct-spheroids and media for tumor cell growth. After thawing, all PDC lines, except 997537-175-T-J1-PDC and 415267-285-R-J2-PDC, were cultured in Matrigel-coated flasks prepared with a working solution of 1X Ham's F-12 nutrient mix, without supplementation (Thermo Fisher Scientific, cat. 11765054), 100 U/mL penicillin-streptomycin (Thermo Fisher Scientific, cat. 15140122), and 2.5% Matrigel (Corning Inc., Corning, NY, cat. 354248) for the first three passages. The two PDC lines 997537-175-T-J1-PDC and 415267-285-R-J2-PDC were cultured on uncoated flasks. The 857933-349-R-J2-PDC line was cultured in 6C/Colon 1B media containing advanced DMEM/F-12 (Thermo Fisher Scientific, cat. 12634028), 10 mM HEPES (Thermo Fisher Scientific, cat. 15630080), 1X GlutaMAX supplement (Thermo Fisher Scientific, cat. 35050061), 0.1 mg/mL primocin (InvivoGen, San Diego, CA, cat. ant-pm-2), 10% defined fetal bovine serum, heat inactivated (HyClone Laboratories Inc., Logan, UT, cat. SH30070.03HI), 50% L-WRN conditioned media (ATCC, cat. CRL-3276), 1.25 mM N-Acetyl-L-cysteine (Sigma-Aldrich, cat. A9165), 10 mM nicotinamide (Sigma-Aldrich, cat. N0636), 1X B-27 supplement (Thermo Fisher Scientific, cat. 17504044), 1X N-2 supplement (Thermo Fisher Scientific, cat. […]

[1] = second compound 0.0316 µM, first compound 0.0316 µM
[2] = second compound 0.0316 µM, first compound 0.1 µM
[3] = second compound 0.0316 µM, first compound 0.316 µM
[4] = second compound 0.0316 µM, first compound 1 µM
[5] = second compound 0.0316 µM, first compound 3.16 µM
[6] = second compound 0.0316 µM, first compound 10 µM
[7] = second compound 0.1 µM, first compound 0.0316 µM
[8] = second compound 0.1 µM, first compound 0.1 µM
[9] = second compound 0.1 µM, first compound 0.316 µM
[10] = second compound 0.1 µM, first compound 1 µM
[11] = second compound 0.1 µM, first compound 3.16 µM
[12] = second compound 0.1 µM, first compound 10 µM
[13] = second compound 0.316 µM, first compound 0.0316 µM
[14] = second compound 0.316 µM, first compound 0.1 µM
[15] = second compound 0.316 µM, first compound 0.316 µM
[16] = second compound 0.316 µM, first compound 1 µM
[17] = second compound 0.316 µM, first compound 3.16 µM
[18] = second compound 0.316 µM, first compound 10 µM
[19] = second compound 1 µM, first compound 0.0316 µM
[20] = second compound 1 µM, first compound 0.1 µM
[21] = second compound 1 µM, first compound 0.316 µM
[22] = second compound 1 µM, first compound 1 µM
[23] = second compound 1 µM, first compound 3.16 µM
[24] = second compound 1 µM, first compound 10 µM
[25] = second compound 3.16 µM, first compound 0.0316 µM
[26] = second compound 3.16 µM, first compound 0.1 µM
[27] = second compound 3.16 µM, first compound 0.316 µM
[28] = second compound 3.16 µM, first compound 1 µM
[29] = second compound 3.16 µM, first compound 3.16 µM
[30] = second compound 3.16 µM, first compound 10 µM
[31] = second compound 10 µM, first compound 0.0316 µM
[32] = second compound 10 µM, first compound 0.1 µM
[33] = second compound 10 µM, first compound 0.316 µM
[34] = second compound 10 µM, first compound 1 µM
[35] = second compound 10 µM, first compound 3.16 µM
[36] = second compound 10 µM, first compound 10 µM
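Also: spheroids exposed to compounds for seven days.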

CC(=O)O[C@H]1C(=O)[C@@]2(C)[C@H]([C@H](OC(=O)c3ccccc3)[C@]3(O)C[C@H](OC(=O)[C@H](O)[C@@H](NC(=O)c4ccccc4)c4ccccc4)C(C)=C1C3(C)C)[C@]1(OC(C)=O)CO[C@@H]1C[C@@H]2O + Cc1cccc(N(C)C(=O)C2C(O)CCN2c2nc(C)cc(C(F)(F)F)c2C#N)c1
> 3 µM: IC50 (second compound 0.0316 µM) | IC50 (second compound 0.1 µM) | IC50 (second compound 0.316 µM) | IC50 (second compound 1 µM) | IC50 (second compound 3.16 µM) | IC50 (second compound 10 µM)
inactive: viability, T/C (second compound 0.0316 µM, first compound 0.00949 µM) 96.5% | viability, T/C (second compound 0.0316 µM, first compound 0.03 µM) 102% | viability, T/C (second compound 0.0316 µM, first compound 0.0949 µM) 96.3% | viability, T/C (second compound 0.0316 µM, first compound 0.3 µM) 98.9% | viability, T/C (second compound 0.0316 µM, first compound 0.949 µM) 94.7% | viability, T/C (second compound 0.0316 µM, first compound 3 µM) 77.9% | viability, T/C (second compound 0.1 µM, first compound 0.00949 µM) 112% | viability, T/C (second compound 0.1 µM, first compound 0.03 µM) 106% | viability, T/C (second compound 0.1 µM, first compound 0.0949 µM) 91.8% | viability, T/C (second compound 0.1 µM, first compound 0.3 µM) 95.3% | viability, T/C (second compound 0.1 µM, first compound 0.949 µM) 98.3% | viability, T/C (second compound 0.1 µM, first compound 3 µM) 79.7% | viability, T/C (second compound 0.316 µM, first compound 0.00949 µM) 111% | viability, T/C (second compound 0.316 µM, first compound 0.03 µM) 94.8% | viability, T/C (second compound 0.316 µM, first compound 0.0949 µM) 95% | viability, T/C (second compound 0.316 µM, first compound 0.3 µM) 89.5% | viability, T/C (second compound 0.316 µM, first compound 0.949 µM) 104% | viability, T/C (second compound 0.316 µM, first compound 3 µM) 78.7% | viability, T/C (second compound 1 µM, first compound 0.00949 µM) 102% | viability, T/C (second compound 1 µM, first compound 0.03 µM) 93.3% | viability, T/C (second compound 1 µM, first compound 0.0949 µM) 91.9% | viability, T/C (second compound 1 µM, first compound 0.3 µM) 98.3% | viability, T/C (second compound 1 µM, first compound 0.949 µM) 101% | viability, T/C (second compound 1 µM, first compound 3 µM) 73.1% | viability, T/C (second compound 3.16 µM, first compound 0.00949 µM) 97.4% | viability, T/C (second compound 3.16 µM, first compound 0.03 µM) 94.2% | viability, T/C (second compound 3.16 µM, first compound 0.0949 µM) 91.8% | viability, T/C (second compound 3.16 µM, first compound 0.3 µM) 88.8% | viability, T/C (second compound 3.16 µM, first compound 0.949 µM) 97% | viability, T/C (second compound 3.16 µM, first compound 3 µM) 80.6% | viability, T/C (second compound 10 µM, first compound 0.00949 µM) 91.3% | viability, T/C (second compound 10 µM, first compound 0.03 µM) 83.9% | viability, T/C (second compound 10 µM, first compound 0.0949 µM) 87.9% | viability, T/C (second compound 10 µM, first compound 0.3 µM) 85.1% | viability, T/C (second compound 10 µM, first compound 0.949 µM) 94.8% | viability, T/C (second compound 10 µM, first compound 3 µM) 84.2%

COc1cc2cc(C(=O)CCC(=O)O)sc2cc1OC + Cc1cccc(N(C)C(=O)C2C(O)CCN2c2nc(C)cc(C(F)(F)F)c2C#N)c1
inactive: viability, T/C [1] 100% | viability, T/C [2] 106% | viability, T/C [3] 96.5% | viability, T/C [4] 99.5% | viability, T/C [5] 105% | viability, T/C [6] 92% | viability, T/C [7] 111% | viability, T/C [8] 97.1% | viability, T/C [9] 98.2% | viability, T/C [10] 95.3% | viability, T/C [11] 111% | viability, T/C [12] 88.3% | viability, T/C [13] 112% | viability, T/C [14] 106% | viability, T/C [15] 106% | viability, T/C [16] 108% | viability, T/C [17] 114% | viability, T/C [18] 100% | viability, T/C [19] 108% | viability, T/C [20] 101% | viability, T/C [21] 108% | viability, T/C [22] 98.9% | viability, T/C [23] 103% | viability, T/C [24] 88.8% | viability, T/C [25] 96.7% | viability, T/C [26] 98.3% | viability, T/C [27] 102% | viability, T/C [28] 101% | viability, T/C [29] 97.9% | viability, T/C [30] 95.4% | viability, T/C [31] 94.3% | viability, T/C [32] 82.2% | viability, T/C [33] 101% | viability, T/C [34] 89.5% | viability, T/C [35] 99.4% | viability, T/C [36] 90.9%
> 10 µM: IC50 (second compound 0.0316 µM) | IC50 (second compound 0.1 µM) | IC50 (second compound 0.316 µM) | IC50 (second compound 1 µM) | IC50 (second compound 3.16 µM) | IC50 (second compound 10 µM)

COc1ccc([C@@H](O)c2cc(-c3ncnc4cc(N5CCOCC5)ccc34)c(F)cc2Cl)nn1 + Cc1cccc(N(C)C(=O)C2C(O)CCN2c2nc(C)cc(C(F)(F)F)c2C#N)c1
9.23 µM: IC50 (second compound 3.16 µM)
> 10 µM: IC50 (second compound 0.0316 µM) | IC50 (second compound 0.1 µM) | IC50 (second compound 0.316 µM) | IC50 (second compound 1 µM) | IC50 (second compound 10 µM)
inactive: viability, T/C [1] 98.6% | viability, T/C [2] 94.8% | viability, T/C [3] 101% | viability, T/C [4] 99% | viability, T/C [5] 77.5% | viability, T/C [6] 57.6% | viability, T/C [7] 103% | viability, T/C [8] 103% | viability, T/C [9] 97.4% | viability, T/C [10] 91.8% | viability, T/C [11] 85.2% | viability, T/C [12] 57.3% | viability, T/C [13] 109% | viability, T/C [14] 104% | viability, T/C [15] 103% | viability, T/C [16] 92.7% | viability, T/C [17] 78.5% | viability, T/C [18] 53.6% | viability, T/C [19] 100% | viability, T/C [20] 93.8% | viability, T/C [21] 94% | viability, T/C [22] 92.1% | viability, T/C [23] 84.1% | viability, T/C [24] 52.3% | viability, T/C [25] 92% | viability, T/C [26] 101% | viability, T/C [27] 95.9% | viability, T/C [28] 87.4% | viability, T/C [29] 74.5% | viability, T/C [30] 48.1% | viability, T/C [31] 97.2% | viability, T/C [32] 79.7% | viability, T/C [33] 83.8% | viability, T/C [34] 78.9% | viability, T/C [35] 71.6% | viability, T/C [36] 51%
